Results published in US12281329B2, “Compositions and methods for immune cell modulation in adoptive immunotherapies” (Fate Therapeutics, Inc., priority 2016, dated 2025).
Counter-ions that a name gives are not always drawn.

Test system: T cells
Experiment: In vitro T cell culture compound screen, flow cytometry for CCR7+CD62L+ cells
Assay type: cell-based, human
Conditions: for CD4 Hit / CD8 Hit: 10 μM, about 6 days, anti-CD3/anti-CD28 beads, viability and cell number Z-score > −1; for CD4 Hit: hit: Z-score > +2 for percent or relative number CCR7+CD62L+ in viable CD4+; for CD8 Hit: hit: Z-score > +2 for percent or relative number CCR7+CD62L+ in viable CD8+
From the text: In Vitro T Cell Culture. Fresh leukopaks (AllCells, Alameda, CA) were obtained from healthy donors, from which T cells were negatively selected using the EasySep Human T cell Enrichment Kit (Stem Cell Technologies, Vancouver, Canada). The freshly isolated T cells were aliquoted and cryopreserved. On the day the screens were initiated, T cells were thawed and washed into X-Vivo 15 with 5% human AB serum, IL-2, pen/strep, and additional supplements. Cells were dispensed into flat-bottom 384-well plates at 5×10^5 cells/ml with anti-CD3/Anti-CD28 dynabeads (ThermoFisher, Waltham, MA) at a 3:1 bead-to-cell ratio. Individual compounds were added at a final concentration of 10 μM to each well from column 3 to column 22 of each plate. Positive and negative controls were added to additional wells. Cells were incubated for about 6 days at 37 degrees with 5% CO2.
Flow Cytometry. On Day 6 of culture, cells were stained with a fixable viability marker and fluorophore-conjugated antibodies: CD3, CD4, CD8, CD45RA, CD45RO, CD62L, CCR7, CD27, and CD122 (BD Biosciences, San Jose, CA; and BioLegend, San Diego, CA). Fluorescent absolute counting beads (Spherotech, Lake Forest, IL) were added just prior to acquisition. Data acquisition was performed on a BD Fortessa X-20 (BD Biosciences) and data were analyzed using Treestar software (FlowJo, Ashland, OR) and Spotfire (Tibco, Boston, MA).
These cells are characterized by expression of CCR7 and CD62L. Therefore, cells co-expressing both of these identifying markers were evaluated. Within the viable CD4+ population and viable CD8+ population, the percent of cells co-expressing CCR7 and CD62L was determined. The expression of either CD62L or CCR7 on T cells, as indicative of the desired T cell subsets, have been described as having favorable functional characteristics for CAR-T cell therapy, and potentially other adoptive T cell therapies.
The number of events in each of these gates relative to the number of absolute counting beads in each sample was calculated, defining a relative measure of the absolute number of naïve, stem cell memory, or central memory T cells within the CD4+ and/or CD8+ populations. A z-Score relative to the screened compound samples within each 384-well plate was calculated for each of these four values: 1) percent CCR7+CD62L+ in CD4+, 2) percent CCR7+CD62L+ in CD8+, 3) absolute relative number of CCR7+CD62L+ in CD4+, and 4) absolute relative number of CCR7+CD62L+ in CD8+(FIGS. 1A and 1B). Z-scores were also calculated for the percent viability of all cells within each sample and the relative absolute number of cells within each sample. A “Z-Score” is a statistical measurement of a score's relationship to the mean in a group of scores. AZ-score of 0 means the score is the same as the mean. AZ-score can also be positive or negative, indicating whether it is above or below the mean and by how many standard deviations.

[1] = in both viable CD4+ population and viable CD8+ population
[2] = at least in viable CD8+ population

## Diethylenetriaminepentaacetic acid, penta sodium
  CD4 Hit: CD4
  CD8 Hit: CD8
[1]
  number or ratio of cells co-expressing CCR7 and CD62L: increased

## NC1CCN(c2nc3c(cc2F)c(=O)c(C(=O)O)cn3-c2ccc(F)cc2F)C1 (stereo not drawn) [Tosufloxacin hydrochloride]
  CD4 Hit: CD4
[2]
  number or ratio of cells co-expressing CCR7 and CD62L: increased

## C=CC1=C(C)c2cc3[nH]c(cc4nc(cc5[nH]c(cc1n2)c(C)c5CCC(=O)O)C(CCC(=O)O)=C4C)c(C)c3C=C [Protoporphyrin IX disodium]
  CD4 Hit: CD4
[2]
  number or ratio of cells co-expressing CCR7 and CD62L: increased

## 2-Naphthacenecarboxamide, 7-chloro-4-(dimethylamino)-1,4,4a,5,5a,6,11,12a-octahy
  CD8 Hit: CD8
[2]
  number or ratio of cells co-expressing CCR7 and CD62L: increased

## C/C=C(/C)C(=O)O[C@H]1C(C)=C2[C@H]([C@@H]1OC(=O)CCCCCCC)[C@@](C)(OC(C)=O)C[C@H](OC(=O)CCC)[C@@]1(O)[C@H]2OC(=O)[C@@]1(C)O [Thapsigargin]
  CD8 Hit: CD8
[2]
  number or ratio of cells co-expressing CCR7 and CD62L: increased

## COc1ccc(-c2cc3nccn3c(Nc3ncccc3C(N)=O)n2)cc1OC [BAY 61-3606]
  CD4 Hit: CD4
[2]
  number or ratio of cells co-expressing CCR7 and CD62L: increased

## O=C(O)Cc1cc(I)c(Oc2ccc(O)c(I)c2)c(I)c1 [Tiratricol]
  CD4 Hit: CD4
  CD8 Hit: CD8
[1]
  number or ratio of cells co-expressing CCR7 and CD62L: increased

## Nc1ncn([C@@H]2O[C@H](CO)[C@@H](O)[C@H]2O)c(=O)n1 [5-Azacytidine]
  CD4 Hit: CD4
  CD8 Hit: CD8
[1]
  number or ratio of cells co-expressing CCR7 and CD62L: increased

## Oc1cccc(-c2nc(N3CCOCC3)c3oc4ncccc4c3n2)c1 [PI-103]
  CD4 Hit: CD4
  CD8 Hit: CD8

## CC(C)(C)c1ccc(C(O)CCCN2CCC(C(O)(c3ccccc3)c3ccccc3)CC2)cc1 (stereo not drawn) [Terfenadine]
  CD4 Hit: CD4
[2]
  number or ratio of cells co-expressing CCR7 and CD62L: increased

## CC[N+](C)(C)c1cccc(O)c1 [Edrophonium chloride]
  CD8 Hit: CD8
[2]
  number or ratio of cells co-expressing CCR7 and CD62L: increased

## Oc1c(Cl)cc(Cl)c2cccnc12 [8-Quinolinol, 5,7-dichloro-]
  CD4 Hit: CD4
  CD8 Hit: CD8
[1]
  number or ratio of cells co-expressing CCR7 and CD62L: increased

## COc1cc2nc(N3CCCN(C)CC3)nc(NC3CCN(Cc4ccccc4)CC3)c2cc1OC [BIX01294]
  CD4 Hit: CD4
[2]
  number or ratio of cells co-expressing CCR7 and CD62L: increased

## CCCc1c(-c2ccc(O)cc2)nn(-c2ccc(O)cc2)c1-c1ccc(O)cc1 [1,3,5-tris(4-hydroxyphenyl)-4-propyl-1H-pyrazole]
  CD4 Hit: CD4
[2]
  number or ratio of cells co-expressing CCR7 and CD62L: increased

## CC(C)C1CCC2(CO2)C2C(=O)OCC(C(=O)O)=CC12 (stereo not drawn) [Heptelidic acid]
  CD4 Hit: CD4
  CD8 Hit: CD8
[1]
  number or ratio of cells co-expressing CCR7 and CD62L: increased

## Sc1ncnc2nc[nH]c12 [6-Mercaptopurine]
  CD4 Hit: CD4
  CD8 Hit: CD8
[1]
  number or ratio of cells co-expressing CCR7 and CD62L: increased

## C=CCc1cccc(/C=N/NC(=O)CN2CCN(Cc3ccccc3)CC2)c1O [PAC-1]
  CD4 Hit: CD4
[2]
  number or ratio of cells co-expressing CCR7 and CD62L: increased

## O=C(N/N=C/c1ccc([N+](=O)[O-])o1)c1ccc(O)cc1 [Nifuroxazide]
  CD8 Hit: CD8
[2]
  number or ratio of cells co-expressing CCR7 and CD62L: increased
